According to the supplement of paper PMC10307832:

Assays:
Test in all cases: relative viability (nuclei count vs DMSO), 5 days (fraction); higher = more cells survive
Vorinostat + Trametinib = compound: O=C(CCCCCCC(=O)Nc1ccccc1)NO [Vorinostat] + CC(=O)Nc1cccc(-n2c(=O)n(C3CC3)c(=O)c3c(Nc4ccc(I)cc4F)n(C)c(=O)c(C)c32)c1 [Trametinib] (partner 0.02 µM)
In short: (§1)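 Relative viability divides the nuclei count in treated wells by that in vehicle wells. Lung cancer cell lines were seeded in 1536-well plates, dosed by pin tool the next day, and fixed and stained after 5 days in one step with final 0.05% Triton X-100, 1% formaldehyde and 1 ug/ml Hoechst. Dosing was a single drug or a fixed anchor-drug dose plus five library-drug doses (not always all listed) in √10 steps, and values are medians of duplicate plates imaged at 4×.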

Vorinostat + Foretinib = compound: O=C(CCCCCCC(=O)Nc1ccccc1)NO [Vorinostat] + COc1cc2c(Oc3ccc(NC(=O)C4(C(=O)Nc5ccc(F)cc5)CC4)cc3F)ccnc2cc1OCCCN1CCOCC1 [Foretinib] (partner 0.25 µM)
In short: as §1

Vorinostat + Lapatinib = compound: O=C(CCCCCCC(=O)Nc1ccccc1)NO [Vorinostat] + CS(=O)(=O)CCNCc1ccc(-c2ccc3ncnc(Nc4ccc(OCc5cccc(F)c5)c(Cl)c4)c3c2)o1 [Lapatinib] (partner 2 µM)
In short: as §1

Vorinostat + Linsitinib = compound: O=C(CCCCCCC(=O)Nc1ccccc1)NO [Vorinostat] + C[C@]1(O)C[C@@H](c2nc(-c3ccc4ccc(-c5ccccc5)nc4c3)c3c(N)nccn32)C1 [Linsitinib] (partner 1 µM)
In short: as §1

Vorinostat + Dasatinib = compound: O=C(CCCCCCC(=O)Nc1ccccc1)NO [Vorinostat] + Cc1nc(Nc2ncc(C(=O)Nc3c(C)cccc3Cl)s2)cc(N2CCN(CCO)CC2)n1 [Dasatinib] (partner 0.075 µM)
In short: as §1

| Cell Line | relative viability (Vorinostat + Trametinib; first compound 0.253 µM) | relative viability (Vorinostat + Trametinib; first compound 0.8 µM) | relative viability (Vorinostat + Trametinib; first compound 2.53 µM) | relative viability (Vorinostat + Trametinib; first compound 8 µM) | relative viability (Vorinostat + Foretinib; first compound 0.253 µM) | relative viability (Vorinostat + Foretinib; first compound 0.8 µM) | relative viability (Vorinostat + Foretinib; first compound 2.53 µM) | relative viability (Vorinostat + Foretinib; first compound 8 µM) | relative viability (Vorinostat + Lapatinib; first compound 0.253 µM) | relative viability (Vorinostat + Lapatinib; first compound 0.8 µM) | relative viability (Vorinostat + Lapatinib; first compound 2.53 µM) | relative viability (Vorinostat + Lapatinib; first compound 8 µM) | relative viability (Vorinostat + Linsitinib; first compound 0.253 µM) | relative viability (Vorinostat + Linsitinib; first compound 0.8 µM) | relative viability (Vorinostat + Linsitinib; first compound 2.53 µM) | relative viability (Vorinostat + Linsitinib; first compound 8 µM) | relative viability (Vorinostat + Dasatinib; first compound 0.253 µM) | relative viability (Vorinostat + Dasatinib; first compound 0.8 µM) | relative viability (Vorinostat + Dasatinib; first compound 2.53 µM) | relative viability (Vorinostat + Dasatinib; first compound 8 µM) |
| --- | --- | --- | --- | --- | --- | --- | --- | --- | --- | --- | --- | --- | --- | --- | --- | --- | --- | --- | --- | --- |
| HCC-15 | 0.377 | 0.338 | 0.147 | 0.0834 | 1.12 | 0.979 | 0.464 | 0.102 | 0.941 | 0.852 | 0.569 | 0.129 | 0.87 | 0.917 | 0.514 | 0.0962 | 0.748 | 0.589 | 0.225 | 0.06 |
| NCI-H520 | 0.959 | 0.549 | 0.212 | 0.124 | 0.965 | 0.791 | 0.555 | 0.179 | 1.12 | 0.668 | 0.319 | 0.116 | 1.15 | 0.841 | 0.293 | 0.12 | 0.219 | 0.206 | 0.179 | 0.17 |
| COR-L23 | 0.79 | 0.447 | 0.159 | 0.0825 | 1.02 | 0.671 | 0.152 | 0.0834 | 1.07 | 0.818 | 0.139 | 0.0646 | 0.899 | 0.468 | 0.0916 | 0.0663 | 0.501 | 0.291 | 0.0778 | 0.0572 |
| CAL-12T | 0.433 | 0.499 | 0.223 | 0.0898 | 1.34 | 1.14 | 0.721 | 0.119 | 0.682 | 0.649 | 0.438 | 0.111 | 0.923 | 0.759 | 0.563 | 0.147 | 0.481 | 0.471 | 0.269 | 0.0806 |
| NCI-H1975 | 0.395 | 0.311 | 0.123 | 0.106 | 0.962 | 0.838 | 0.295 | 0.108 | 1.16 | 0.787 | 0.303 | 0.117 | 0.987 | 0.8 | 0.294 | 0.145 | 0.407 | 0.32 | 0.162 | 0.0818 |
| LC-2-ad | 0.936 | 0.776 | 0.435 | 0.221 | 0.984 | 0.681 | 0.268 | 0.145 | 0.924 | 0.67 | 0.253 | 0.0672 | 0.868 | 0.606 | 0.13 | 0.136 | 0.585 | 0.235 | 0.127 | 0.124 |
| HARA | 1.06 | 0.576 | 0.18 | 0.0921 | 0.965 | 0.495 | 0.151 | 0.0596 | 0.849 | 0.682 | 0.237 | 0.112 | 1.13 | 0.948 | 0.254 | 0.101 | 0.311 | 0.238 | 0.18 | 0.0565 |
| HCC-78 | 0.774 | 0.495 | 0.201 | 0.181 | 0.683 | 0.448 | 0.221 | 0.221 | 0.705 | 0.455 | 0.249 | 0.155 | 0.547 | 0.238 | 0.135 | 0.107 | 0.371 | 0.398 | 0.211 | 0.2 |
| HCC-827 | 0.712 | 0.642 | 0.351 | 0.163 | 1.07 | 1.02 | 0.55 | 0.174 | 0.219 | 0.204 | 0.155 | 0.161 | 1.01 | 1.04 | 0.837 | 0.21 | 0.299 | 0.334 | 0.382 | 0.314 |
| NCI-H2085 | 0.587 | 0.503 | 0.285 | 0.155 | 0.968 | 0.665 | 0.468 | 0.228 | 0.676 | 0.608 | 0.494 | 0.278 | 0.818 | 0.804 | 0.621 | 0.243 | 0.24 | 0.252 | 0.223 | 0.225 |
| NCI-H2405 | 0.87 | 0.872 | 0.486 | 0.141 | 1.16 | 1.15 | 0.505 | 0.108 | 1.36 | 1.18 | 0.306 | 0.0576 | 1.13 | 1.09 | 0.245 | 0.0821 | 0.237 | 0.17 | 0.117 | 0.0585 |
| PC-14 | 0.785 | 0.483 | 0.155 | 0.0461 | 1.15 | 1.04 | 0.62 | 0.0829 | 0.36 | 0.251 | 0.135 | 0.0961 | 1.01 | 0.911 | 0.323 | 0.112 | 0.344 | 0.239 | 0.0451 | 0.026 |
| NCI-H358 | 0.171 | 0.149 | 0.0954 | 0.0859 | 1.01 | 0.649 | 0.154 | 0.0783 | 0.642 | 0.566 | 0.276 | 0.199 | 0.969 | 0.83 | 0.219 | 0.156 | 0.182 | 0.227 | 0.0991 | 0.0768 |
| NCI-H1755 | 0.791 | 0.77 | 0.602 | 0.219 | 0.997 | 0.971 | 0.525 | 0.202 | 1.05 | 1.03 | 0.28 | 0.154 | 1.07 | 1.05 | 0.512 | 0.188 | 0.447 | 0.469 | 0.254 | 0.139 |
| NCI-H2087 | 0.202 | 0.158 | 0.141 | 0.087 | 1.34 | 0.615 | 0.153 | 0.0924 | 1.23 | 0.962 | 0.352 | 0.178 | 0.974 | 1.03 | 0.474 | 0.159 | 0.94 | 0.553 | 0.124 | 0.0691 |
| NCI-H1666 | 0.894 | 0.805 | 0.561 | 0.439 | 0.982 | 0.906 | 0.387 | 0.349 | 0.606 | 0.339 | 0.228 | 0.167 | 0.864 | 0.707 | 0.33 | 0.227 | 0.881 | 0.698 | 0.422 | 0.266 |
